System: rat
Test: concentration in urine after dosing
Details: dosed: benzo(a)pyrene, 20 mg/kg, iv, male, Sprague-Dawley

Oc1ccc2ccc3cc4ccccc4c4ccc1c2c34 [1-hydroxybenzo(a)pyrene]
Details	concentration in urine [ng/mL]
3.699 h	0.371
7.645 h	0.0295
10.85 h	0.0167
22.69 h	1.58
28.98 h	3.02
34.9 h	5.24
46.73 h	2.31
52.9 h	2.18
58.94 h	1.1
77.07 h	0.514
94.7 h	0.0397

Oc1ccc2ccc3c4ccccc4cc4ccc1c2c43 [3-hydroxybenzo(a)pyrene]
Details	concentration in urine [ng/mL]
4.071 h	0.145
8.015 h	0.0241
23.16 h	5.11
28.88 h	6.99
35.11 h	8.63
47.07 h	6.84
52.93 h	6.1
59.03 h	2.19
76.84 h	0.0482
95.04 h	0.289

c1ccc2c(c1)cc1ccc3cccc4ccc2c1c34 [benzo(a)pyrene]
Details	concentration in urine [ng/mL]
4.13 h	3.27
7.866 h	0.98
11.07 h	0.98
23.06 h	10.1
29.09 h	126
35.2 h	1.96
47.07 h	0.98
52.8 h	0.654
58.8 h	0.654
76.8 h	0.654
94.93 h	0.654
